Assay results: patent US11839613B2, “Pyrimidine derivatives as PGE2 receptor modulators” (IDORSIA PHARMACEUTICALS LTD, priority 2017, dated 2023)

Tests used:
[1] = molecular target: PTGER4 (EP4) (Homo sapiens (Human), UniProt P35408); experiment: cell-based
[2] = molecular target: PTGER2 (EP2) (Homo sapiens (Human), UniProt P43116); experiment: hEP2 b-arrestin assay (PathHunter HEK 293 PTGER2 b-arrestin cells); format: cell-based; details: antagonistic activity, beta-arrestin assay; read-out: hEP2 b-arr IC50
Method: Plate is pre-incubated 15 minutes at 37° C. Then five microliters of PGE2 (final conc. 5 μM) are transferred into the assay plate. Plate is incubated 120 minutes at 37° C.
(each concentration is measured in duplicate)

Chain of PTGER4 (EP4) (P35408 whole entry): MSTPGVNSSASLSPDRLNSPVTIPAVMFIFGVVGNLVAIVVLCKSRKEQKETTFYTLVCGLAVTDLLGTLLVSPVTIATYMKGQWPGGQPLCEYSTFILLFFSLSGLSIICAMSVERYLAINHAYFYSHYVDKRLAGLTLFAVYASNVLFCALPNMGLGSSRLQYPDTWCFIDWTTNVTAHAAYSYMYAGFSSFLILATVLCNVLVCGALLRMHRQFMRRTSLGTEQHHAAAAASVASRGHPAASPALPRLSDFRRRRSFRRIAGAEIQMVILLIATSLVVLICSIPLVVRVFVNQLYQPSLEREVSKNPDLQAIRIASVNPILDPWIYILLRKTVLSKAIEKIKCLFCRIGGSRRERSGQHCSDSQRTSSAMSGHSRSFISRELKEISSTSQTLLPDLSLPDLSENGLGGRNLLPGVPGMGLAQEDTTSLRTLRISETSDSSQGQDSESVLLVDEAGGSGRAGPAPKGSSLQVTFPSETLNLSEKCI
Chain of PTGER2 (EP2) (P43116 whole entry): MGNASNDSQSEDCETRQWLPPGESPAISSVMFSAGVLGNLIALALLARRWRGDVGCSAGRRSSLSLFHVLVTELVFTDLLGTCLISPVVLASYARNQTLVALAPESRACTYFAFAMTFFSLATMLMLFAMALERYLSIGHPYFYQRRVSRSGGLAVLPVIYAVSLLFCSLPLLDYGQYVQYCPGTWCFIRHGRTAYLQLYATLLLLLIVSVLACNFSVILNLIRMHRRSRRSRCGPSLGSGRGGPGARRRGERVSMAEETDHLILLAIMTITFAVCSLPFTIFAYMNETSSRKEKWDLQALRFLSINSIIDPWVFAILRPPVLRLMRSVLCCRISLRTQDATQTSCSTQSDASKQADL

COc1cc2c(cc1CCNc1cc(-c3ccc(C(=O)O)c(OC4CC4)c3)ncn1)OCCO2 [Example 520, 2-Cyclopropoxy-4-{6-[2-(7-methoxy-2,3-dihydro-benzo[1,4]dioxin-6-yl)-ethylamino]-pyrimidin-4-yl}-benzoic acid]
IC50 [1]: 107 nM | IC50 [2]: 19 nM

Cc1c(CCNc2cc(-c3ccc(C(=O)O)c(OC4CC4)c3)ncn2)ccc2ccccc12 [Example 521, 2-Cyclopropoxy-4-{6-[2-(1-methyl-naphthalen-2-yl)-ethylamino]-pyrimidin-4-yl}-benzoic acid]
IC50 [1]: 78 nM | IC50 [2]: 31 nM

COc1cc2c(cc1CCNc1cc(-c3ccc(CC(=O)O)c(OC(F)F)c3)ncn1)OCCO2 [Example 522, (2-Difluoromethoxy-4-{6-[2-(7-methoxy-2,3-dihydro-benzo[1,4]dioxin-6-yl)-ethylamino]-pyrimidin-4-yl}-phenyl)-acetic acid]
IC50 [1]: 204 nM | IC50 [2]: 131 nM

COc1cc2c(cc1CCNc1cc(-c3ccc(CC(=O)O)c(OC(C)C)c3)ncn1)OCCO2 [Example 523, (2-Isopropoxy-4-{6-[2-(7-methoxy-2,3-dihydro-benzo[1,4]dioxin-6-yl)-ethylamino]-pyrimidin-4-yl}-phenyl)-acetic acid]
IC50 [1]: 195 nM | IC50 [2]: 227 nM

CCc1cc(-c2cc(NCCc3cc4c(cc3OC)OCCO4)ncn2)ccc1CC(=O)O [Example 524, (2-Ethyl-4-{6-[2-(7-methoxy-2,3-dihydro-benzo[1,4]dioxin-6-yl)-ethylamino]-pyrimidin-4-yl}-phenyl)-acetic acid]
IC50 [1]: 257 nM | IC50 [2]: 231 nM

COc1cc2c(cc1CCNc1cc(-c3ccc(CC(=O)O)c(C(F)(F)F)c3)ncn1)OCCO2 [Example 525, (4-{6-[2-(7-Methoxy-2,3-dihydro-benzo[1,4]dioxin-6-yl)-ethylamino]-pyrimidin-4-yl}-2-trifluoromethyl-phenyl)-acetic acid]
IC50 [1]: 349 nM | IC50 [2]: 160 nM

CCCc1cc(-c2cc(NCCc3cc4c(cc3C)OCCO4)ncn2)ccc1CC(=O)O [Example 526, (4-{6-[2-(7-Methyl-2,3-dihydro-benzo[1,4]dioxin-6-yl)-ethylamino]-pyrimidin-4-yl}-2-propyl-phenyl)-acetic acid]
IC50 [1]: 269 nM | IC50 [2]: 96 nM

CCCc1cc(-c2cc(NCCc3ccc4c(c3)OCCO4)ncn2)ccc1CC(=O)O [Example 527, (4-{6-[2-(2,3-Dihydro-benzo[1,4]dioxin-6-yl)-ethylamino]-pyrimidin-4-yl}-2-propyl-phenyl)-acetic acid]
IC50 [1]: 337 nM | IC50 [2]: 892 nM

CCCc1cc(-c2cc(NCCc3cc4c(cc3F)OCCO4)ncn2)ccc1CC(=O)O [Example 528, (4-{6-[2-(7-Fluoro-2,3-dihydro-benzo[1,4]dioxin-6-yl)-ethylamino]-pyrimidin-4-yl}-2-propyl-phenyl)-acetic acid]
IC50 [1]: 198 nM | IC50 [2]: 513 nM

O=c1[nH]c(-c2ccc(-c3cc(NCCc4cc(F)c5sccc5c4)ncn3)cc2)no1 [Example 529, 3-(4-(6-((2-(7-fluorobenzo[b]thiophen-5-yl)ethyl)amino)pyrimidin-4-yl)phenyl)-[1,2,4]oxadiazol-5(4H)-one]
IC50 [1]: 55 nM | IC50 [2]: 699 nM

CN1C(=O)NCc2ccc(-c3cc(NCCc4cc(F)c5sccc5c4)ncn3)cc21 [Example 530, 7-{6-[2-(7-Fluoro-benzo[b]thiophen-5-yl)-ethylamino]-pyrimidin-4-yl}-1-methyl-3,4-dihydro-1H-quinazolin-2-one]
IC50 [1]: 44 nM | IC50 [2]: 514 nM

O=C(O)c1cccc2[nH]c(-c3cc(NCCc4cc(F)c5sccc5c4)ncn3)cc12 [Example 531, 2-{6-[2-(7-Fluoro-benzo[b]thiophen-5-yl)-ethylamino]-pyrimidin-4-yl}-1H-indole-4-carboxylic acid]
IC50 [1]: 110 nM | IC50 [2]: 624 nM

Cc1cc(-c2cc(NCCc3cc(F)c4sccc4c3)ncn2)cc(C)c1O [Example 532, 4-{6-[2-(7-Fluoro-benzo[b]thiophen-5-yl)-ethylamino]-pyrimidin-4-yl}-2,6-dimethyl-phenol]
IC50 [1]: 69 nM | IC50 [2]: 293 nM

CCSc1cc(-c2cc(NCCc3cc(F)c4sccc4c3)ncn2)ccc1C(=O)O [Example 533, 2-Ethylsulfanyl-4-{6-[2-(7-fluoro-benzo[b]thiophen-5-yl)-ethylamino]-pyrimidin-4-yl}-benzoic acid]
IC50 [1]: 53 nM | IC50 [2]: 211 nM

O=C(O)c1ccc(-c2cc(NCCc3cc(F)c4sccc4c3)ncn2)cc1OC1CCC1 [Example 534, 2-Cyclobutoxy-4-{6-[2-(7-fluoro-benzo[b]thiophen-5-yl)-ethylamino]-pyrimidin-4-yl}-benzoic acid]
IC50 [1]: 70 nM | IC50 [2]: 332 nM

CCOc1cc(-c2cc(NCCc3cc(F)c4sccc4c3)ncn2)sc1CCC(=O)O [Example 535, 3-(3-Ethoxy-5-{6-[2-(7-fluoro-benzo[b]thiophen-5-yl)-ethylamino]-pyrimidin-4-yl}-thiophen-2-yl)-propionic acid]
IC50 [1]: 42 nM | IC50 [2]: 871 nM

O=c1c(O)c(-c2ccc(-c3cc(NCCc4cc(F)c5sccc5c4)ncn3)cc2)c1=O [Example 536, 3-(4-{6-[2-(7-Fluoro-benzo[b]thiophen-5-yl)-ethylamino]-pyrimidin-4-yl}-phenyl)-4-hydroxy-cyclobut-3-ene-1,2-dione]
IC50 [1]: 28 nM | IC50 [2]: 203 nM

CCOc1cc(-c2cc(NCCc3cc(F)c4sccc4c3)ncn2)ccc1C(=O)C(=O)O [Example 537, (2-Ethoxy-4-{6-[2-(7-fluoro-benzo[b]thiophen-5-yl)-ethylamino]-pyrimidin-4-yl}-phenyl)-oxo-acetic acid]
IC50 [1]: 76 nM | IC50 [2]: 670 nM

COC(=O)c1ccc(-c2cc(NCCc3cc(F)c4sccc4c3)ncn2)cc1OC1CC1 [Example 538, 2-Cyclopropoxy-4-{6-[2-(7-fluoro-benzo[b]thiophen-5-yl)-ethylamino]-pyrimidin-4-yl}-benzoic acid methyl ester]
IC50 [1]: 99 nM | IC50 [2]: 685 nM

Fc1cc(CCNc2cc(-c3ccc4[nH]ccc4c3)ncn2)cc2ccsc12 [Example 539, [2-(7-Fluoro-benzo[b]thiophen-5-yl)-ethyl]-[6-(1H-indol-5-yl)-pyrimidin-4-yl]amine]
IC50 [1]: 225 nM | IC50 [2]: 452 nM

O=C(O)Cc1ccc(-c2cc(NCCc3cc(F)c4sccc4c3)ncn2)cc1OC(F)F [Example 540, (2-Difluoromethoxy-4-{6-[2-(7-fluoro-benzo[b]thiophen-5-yl)-ethylamino]-pyrimidin-4-yl}-phenyl)-acetic acid]
IC50 [1]: 146 nM | IC50 [2]: 339 nM

CCc1cc(-c2cc(NCCc3cc(F)c4sccc4c3)ncn2)cc(Cl)c1CC(=O)O [Example 541, (2-Chloro-6-ethyl-4-{6-[2-(7-fluoro-benzo[b]thiophen-5-yl)-ethylamino]-pyrimidin-4-yl}-phenyl)-acetic acid]
IC50 [1]: 88 nM | IC50 [2]: 604 nM

CCc1cc(-c2cc(NCCc3cc(F)c4sccc4c3)ncn2)cc(C)c1CC(=O)O [Example 542, (2-Ethyl-4-{6-[2-(7-fluoro-benzo[b]thiophen-5-yl)-ethylamino]-pyrimidin-4-yl}-6-methyl-phenyl)-acetic acid]
IC50 [1]: 91 nM | IC50 [2]: 609 nM

O=c1nc(-c2ccc(-c3cc(NCCc4cc(F)c5sccc5c4)ncn3)cc2)o[nH]1 [Example 543, 5-(4-(6-((2-(7-fluorobenzo[b]thiophen-5-yl)ethyl)amino)pyrimidin-4-yl)phenyl)-[1,2,4]oxadiazol-3(2H)-one]
IC50 [1]: 124 nM | IC50 [2]: 612 nM

Cc1cc(-c2cc(NCCc3cc(F)c4sccc4c3)ncn2)ccc1CC(=O)O [Example 544, (4-{6-[2-(7-Fluoro-benzo[b]thiophen-5-yl)-ethylamino]-pyrimidin-4-yl}-2-methyl-phenyl)-acetic acid]
IC50 [1]: 452 nM | IC50 [2]: 851 nM

CCc1cc(-c2cc(NCCc3cc(F)c4sccc4c3)ncn2)sc1CC(=O)O [Example 545, (3-Ethyl-5-{6-[2-(7-fluoro-benzo[b]thiophen-5-yl)-ethylamino]-pyrimidin-4-yl}-thiophen-2-yl)-acetic acid]
IC50 [1]: 25 nM | IC50 [2]: 394 nM

Cc1cc(-c2cc(NCCc3cc(F)c4sccc4c3)ncn2)cc(Cl)c1CC(=O)O [Example 546, (2-Chloro-4-{6-[2-(7-fluoro-benzo[b]thiophen-5-yl)-ethylamino]-pyrimidin-4-yl}-6-methyl-phenyl)-acetic acid]
IC50 [1]: 166 nM | IC50 [2]: 980 nM

CCn1cc(-c2cc(NCCc3cc(F)c4sccc4c3)ncn2)cc1C(=O)O [Example 547, 1-Ethyl-4-{6-[2-(7-fluoro-benzo[b]thiophen-5-yl)-ethylamino]-pyrimidin-4-yl}-1H-pyrrole-2-carboxylic acid]
IC50 [1]: 322 nM | IC50 [2]: 825 nM

CCCn1cc(-c2cc(NCCc3cc(F)c4sccc4c3)ncn2)cc1C(=O)O [Example 548, 4-{6-[2-(7-Fluoro-benzo[b]thiophen-5-yl)-ethylamino]-pyrimidin-4-yl}-1-propyl-1H-pyrrole-2-carboxylic acid]
IC50 [1]: 295 nM | IC50 [2]: 933 nM

O=C(O)c1coc2cc(-c3cc(NCCc4cc(F)c5sccc5c4)ncn3)ccc12 [Example 549, 6-{6-[2-(7-Fluoro-benzo[b]thiophen-5-yl)-ethylamino]-pyrimidin-4-yl}-benzofuran-3-carboxylic acid]
IC50 [1]: 190 nM | IC50 [2]: 560 nM

CCOc1cc(-c2cc(NCCc3cc(F)c4sccc4c3)ncn2)ccc1-c1cc(O)no1 [Example 550, 5-(2-Ethoxy-4-{6-[2-(7-fluoro-benzo[b]thiophen-5-yl)-ethylamino]-pyrimidin-4-yl}-phenyl)-isoxazol-3-ol]
IC50 [1]: 63 nM | IC50 [2]: 371 nM

CCCc1cc(-c2cc(NCCc3cc(F)c4sccc4c3)ncn2)cc(OCC)c1C(=O)O [Example 551, 2-Ethoxy-4-{6-[2-(7-fluoro-benzo[b]thiophen-5-yl)-ethylamino]-pyrimidin-4-yl}-6-propyl-benzoic acid]
IC50 [1]: 867 nM | IC50 [2]: 900 nM
